One assay deals with conscious minipig. Kind of assay: Mean arterial blood pressure by radiotelemetry after LNP2 infusion in the conscious minipig. In kind it is in vivo, Gottingen minipigs. The conditions noted are these: iv bolus 10 minutes prior to LNP2 infusion; ketorolac 1 mg/kg, dexamethasone 0.3 mg/kg. An excerpt:
(§1) Four (4) treatment naïve female Gottingen minipigs (Marshall Farms, N.Y.) were surgically implanted with a D70-PCT PhysioTel implantable radiotelemetry transmitter (Data Sciences International, St. Paul, Minn.) to allow for the measurement of physical activity, body temperature, ECG, heart rate, and arterial blood pressure. The pigs were allowed to recover from surgery for at least 7 days prior to use in the study.
(§2) Following surgical recovery, the same four pigs (15-20 kg) received a 60-minute intravenous infusion of vehicle (0.9% saline), LNP2, LNP2+ketorolac, or LNP2+dexamethasone as outlined in the Table 1. Each treatment cohort was separated by a 7-day washout period.
(§3) Just prior to each infusion and at approximately 1, 3, 6 and 24 hours after the start of each infusion, a mixed venous blood sample was taken, processed to plasma, stored frozen, and used for subsequent analysis of thromboxane B2 (11-dehydrothromboxane B2). Heart rate and arterial blood pressure was continuously recorded from 30 minutes prior to each infusion to 24 hours after the start of each infusion.

A further assay concerns thromboxane B2. Kind of assay: Plasma thromboxane B2 after LNP2 infusion in the conscious minipig. In kind it is in vivo, Gottingen minipigs. Conditions: iv bolus 10 minutes prior to LNP2 infusion; ketorolac 1 mg/kg, dexamethasone 0.3 mg/kg.
Text: as §1, §2, §3

“Also recorded” adds a separate entry of the source.

As for `O=C(c1ccccc1)c1ccc2n1CCC2C(=O)O` (stereo not drawn) [ketorolac], in the assay with conscious minipig, the “effect on the acute infusion reaction to LNP2 (increase in blood pressure)” value is listed as “completely prevented” and the “effect on the delayed hypotension after LNP2 infusion” value is given as “prevented; also recorded: effectively mitigated”. The “effect on the LNP2-induced increase in thromboxane B2” value in the assay with thromboxane B2 is reported as “mitigated completely”.

These data come from patent US11904052B2, “Methods for ameliorating infusion reactions” (ARBUTUS BIOPHARMA CORPORATION, priority 2016, dated 2024).
